Reference: article PMC12274739, “Differential substrate degradation by super-degron: EGFP in wild-type mouse cells, PD-1 requires CRBN humanization” (iScience, 2025)
Where two headings read alike, the source gives them in different places. Residues, ends and D or L forms follow the SMILES beside them. *: point of attachment. Cbz = O=C(OCc1ccccc1)*

Key:
[1] = system: degradation of SD-tagged EGFP; test: Inhibition of IBR-induced degradation of SD-EGFP or EGFP-SD in B6J-S1 by pathway inhibitors; assay type: cell-based, mouse; conditions: B6J-S1, IBR fixed at 1 μM, 24 h
[2] = in vivo; cited from earlier work
EGFP-IKZF = EGFP-IKZF (UniProt P42212+Q8C7D2, F64L/H231L/INS1V/S65T); assay type: cell-based, mouse; conditions: for Bottom, EGFP-IKZF / LogDC50, EGFP-IKZF / DC50: stable; for DC50: read-out: DC50, EGFP-IKZF
EGFP-ZFP91 = EGFP-ZFP91 (UniProt P42212+Q8C7D2, F64L/H231L/INS1V/S65T); assay type: cell-based, mouse; conditions: CrbnI391V/I391V mESCs; for Bottom, EGFP-ZFP91 / LogDC50, EGFP-ZFP91 / DC50: stable, Figure 5E; for DC50: read-out: DC50, EGFP-ZFP91
EGFP-SD = EGFP-SD (Aequorea victoria, UniProt P42212, F64L/H231L/S65T); assay type: cell-based, mouse; conditions: stable; for DC50: read-out: DC50, EGFP-SD
[3] = CrbnI391V/I391V mESCs, Figure 5E

SMILES: NS(=O)(=O)OC[C@@H]1C[C@@H](n2ccc3c(N[C@H]4CCc5ccccc54)ncnc32)C[C@@H]1O [MNL4924, pevonedistat]
- effect on IBR-induced EGFP degradation [1]: inhibited in a concentration-dependent manner

SMILES: CC[C@H](C(=O)N1CCCC[C@H]1C(=O)O[C@H](CCc1ccc(OC)c(OC)c1)c1ccccc1OCC(=O)NCCCCCCOc1cccc2c1C(=O)N(C1CCC(=O)NC1=O)C2=O)c1cc(OC)c(OC)c(OC)c1 (some centres unmarked) [dTAG-13]
- blood-brain barrier (BBB) passage [2]: cannot cross the blood-brain barrier

SMILES: N#Cc1ccc(N2CCN(Cc3ccc(COc4cccc5c4CN([C@H]4CCC(=O)NC4=O)C5=O)cc3)CC2)c(F)c1 [MZG, mezigdomide]
- Bottom, EGFP-IKZF (EGFP-IKZF; B6J-S1 mESCs, Figure 5D): 0.385
- LogDC50, EGFP-IKZF (EGFP-IKZF; B6J-S1 mESCs, Figure 5D): -1.952 μM
- Bottom, EGFP-IKZF (EGFP-IKZF; [3]): 0.1226
- LogDC50, EGFP-IKZF (EGFP-IKZF; [3]): -3.265 μM
- DC50 (EGFP-IKZF; B6J-S1 mESCs, Figure 5D): 11.2 nM
- DC50 (EGFP-IKZF; [3]): 0.543 nM
- degradation of EGFP-ZFP91 (EGFP-ZFP91): efficiently degraded
- Bottom, EGFP-ZFP91 (EGFP-ZFP91): 0.03183
- LogDC50, EGFP-ZFP91 (EGFP-ZFP91): -3.343 μM
- DC50 (EGFP-ZFP91): 0.454 nM
- Bottom, EGFP-SD (EGFP-SD; B6J-S1 mESCs, Figure 5D): 0.0126
- LogDC50, EGFP-SD (EGFP-SD; B6J-S1 mESCs, Figure 5D): -3.875 μM
- Bottom, EGFP-SD (EGFP-SD; [3]): 0.0164
- LogDC50, EGFP-SD (EGFP-SD; [3]): -4.187 μM
- DC50 (EGFP-SD; B6J-S1 mESCs, Figure 5D): 0.133 nM
- DC50 (EGFP-SD; [3]): 0.0651 nM

SMILES: NS(=O)(=O)OC[C@H]1C[C@@H](Nc2ccnc3cc(-c4cccc(SC(F)(F)F)c4)nn23)[C@H](O)[C@@H]1O [TAK-243]
- effect on IBR-induced EGFP degradation [1]: inhibited in a concentration-dependent manner

SMILES: CCN(CC)CCCC(C)Nc1ccnc2cc(Cl)ccc12 (centres unmarked) [chloroquine]
- effect on IBR-induced EGFP degradation [1]: but not by chloroquine

SMILES: CC(C)C[C@@H](C=O)NC(=O)[C@H](CC(C)C)NC(=O)[C@H](CC(C)C)NC(=O)OCc1ccccc1 [MG-132] (Cbz-Leu-Leu-Leu-aldehyde)
- effect on IBR-induced EGFP degradation [1]: inhibited in a concentration-dependent manner

SMILES: Cc1nc2cccc(N)c2c(=O)n1C1CCC(=O)NC1=O (centres unmarked) [AVA, avadomide]
- Bottom, EGFP-IKZF (EGFP-IKZF; B6J-S1 mESCs, Figure 5D): 0.07112
- LogDC50, EGFP-IKZF (EGFP-IKZF; B6J-S1 mESCs, Figure 5D): -0.9014 μM
- Bottom, EGFP-IKZF (EGFP-IKZF; [3]): 0.1373
- LogDC50, EGFP-IKZF (EGFP-IKZF; [3]): -1.87 μM
- EGFP-IKZF amount compared to other reagents (EGFP-IKZF; mESCs, 0.1 and 1 μM): significantly reduced
- DC50 (EGFP-IKZF; B6J-S1 mESCs, Figure 5D): 126 nM
- DC50 (EGFP-IKZF; [3]): 13.5 nM
- Bottom, EGFP-ZFP91 (EGFP-ZFP91): 0.1629
- LogDC50, EGFP-ZFP91 (EGFP-ZFP91): -1.296 μM
- DC50 (EGFP-ZFP91): 50.5 nM
- Bottom, EGFP-SD (EGFP-SD; B6J-S1 mESCs, Figure 5D): 0.01996
- LogDC50, EGFP-SD (EGFP-SD; B6J-S1 mESCs, Figure 5D): -2.1 μM
- Bottom, EGFP-SD (EGFP-SD; [3]): 0.06758
- LogDC50, EGFP-SD (EGFP-SD; [3]): -2.187 μM
- DC50 (EGFP-SD; B6J-S1 mESCs, Figure 5D): 7.94 nM
- DC50 (EGFP-SD; [3]): 6.5 nM

SMILES: CCOC(=O)c1ccc(N2NC(=O)/C(=C/c3ccc([N+](=O)[O-])o3)C2=O)cc1 [PYR-41]
- effect on IBR-induced EGFP degradation [1]: did not affect the degradation of EGFP
